Laboratory results as given in patent publication US20250268913A1, “PKC INHIBITORS FOR THE TREATMENT OF SEPTIC CHOLESTASIS WITH CTM TARGETING” (SMARTDYELIVERY GMBH, priority 2018, published 2025).

Key:
PCI model, C57/BL6 mice = test: Survival rate in cholestasis model under septic conditions, peritoneal contamination and infection (PCI); format: in vivo; conditions: free drug alone, 4 mg/kg body weight
Description: In order to mimic the septic cholestasis, a systemic inflammation was induced using the well-established peritoneal contamination and infection (PCI) model. In this model, a human feces suspension is applied intraperitoneally (i.p.) and rapidly triggers sepsis with liver dysfunction. For each batch of human stool, the dose is titrated carefully for a survival between 0% and 20% within two weeks.
To find the adequate dose of stool, different doses were tested. 6 h after i.p. application of the stool, 8-12 weeks old C57/BL6 mice or FVB/N mice were treated with the nanoparticles or the free drug respectively.
A systemic infection/sepsis with organ failure was induced in male C57/BL6 mice by using the PCI model. For this purpose, a human fecal suspension (2.5 μl/g BW for stool batch1 and 6 μl/g for stool batch 2, respectively) was injected intraperitoneally (without anesthesia) with weight adaptation, thus triggering peritonitis with subsequent systemic infection. […] The animals were closely monitored and scored every 6 hours for signs of infection in order to timely. […] With the evaluated dose of 6 μl/g BW stool and additional antibiotic therapy, all mice died within three days, as shown in the Kaplan-Meier-Schätzer diagram (FIG. 14, right panel). […]

[1] = cited from earlier work
[2] = compared to placebo; cited from earlier work

SMILES: O=C1NC(=O)/C(=C\c2ccc3nccnc3c2)S1 [AS605240]
- activity of free drug (survival) (PCI model, C57/BL6 mice): active

SMILES: CO[C@@H]1[C@H](N(C)C(=O)c2ccccc2)C[C@H]2O[C@]1(C)n1c3ccccc3c3c4c(c5c6ccccc6n2c5c31)C(=O)NC4 [midostaurin]
- Serious adverse reactions due to infections and gastrointestinal disorders ([1]; most common serious adverse reactions): ≥ 20%
- on-treatment deaths from disease progression attributed to infection ([1]; number of deaths): 4
- adverse reaction sepsis occurring in patients ([1]; page 8 of the professional information): ≥ 9 % of patients
- Grade ≥3 adverse reactions reported (fatigue, sepsis, gastrointestinal hemorrhage, pneumonia, diarrhea, febrile neutropenia) ([1]; patients): ≥ 5%
- Serious adverse reactions ([1]; patients): 68 % of patients
- Treatment discontinuation due to adverse reaction ([1]; patients): 21 % of patients

SMILES: CN(C)CCCn1cc(C2=C(c3c[nH]c4ccccc34)C(=O)NC2=O)c2ccccc21 [BIM-1]
- activity of free drug (survival) (PCI model, C57/BL6 mice): active

SMILES: CC[C@H](Nc1ncnc2[nH]cnc12)c1nc2cccc(F)c2c(=O)n1-c1ccccc1 [idelalisib]
- risk of developing sepsis as adverse effect [2]: five-fold higher
